According to patent US11066378B2, “Caffeic acid derivatives for anti-angiogenesis” (Taipei Medical University, priority 2015, dated 2021):

Legend:
HUVECs = experiment: Cell viability assay (MTT assay), growth inhibition of HUVECs; type: cell-based, human
Description: Human umbilical vein endothelial cells (HUVECs; #8000) were purchased from the ScienCell Research Laboratories (San Diego, Calif., USA). The cells were seeded on gelatin-coated culture dishes and grown in the commercial endothelial cell medium (#1001; ScienCell) containing 5% fetal bovine serum (FBS; #0025; ScienCell), 30 μg/mL endothelial cell growth supplements (ECGS; #1052; ScienCell), 100 units/mL penicillin G, and 100 μg/mL streptomycin sulfates (#0503; ScienCell). Cells at passage 3-6 were used for experiments. Mouse Lewis lung carcinoma cell line 1 (LLC1; #60050) was bought from the Food Industry Research and Development Institute (Hsinchu, Taiwan) and cultured in Gibco® Dulbecco's modified Eagle's medium (#12800-017; Invitrogen, Carlsbad, Calif., USA) supplemented with 10% FBS (HyClone, Logan, Utah, USA), 4 mM L-glutamine, 1.5 g/L sodium bicarbonate, 100 units/mL penicillin G, and 100 μg/mL streptomycin. All cells were incubated in a humidified 5% CO2 atmosphere at 37° C. and culture media was changed every 2˜3 days.
The experiments were performed according to our previous study with minor modifications (Pan et al., 2010). Briefly, the cells (2×10^4 cells/well) were seeded and grown under normal culture medium for 24 h. After another 24 h of starvation with 0.5% FBS, the cells were treated with several concentrations (1, 2, 4, 8, and 16 μM) of the tested compounds for 24 h and then incubated with 5 mg/mL of MTT (3-[4,5-dimethyl thiazol-2-yl]-2,5-diphenyl tetrazolium bromide) for 2 h. After that, the cells were washed with 1×PBS and then dimethyl sulfoxide (DMSO) was added to each well. Absorbance values at 570 nm were determined for each well using 650 nm as the reference wavelength. The absorbance of the control group (treated with 5% or 10% FBS alone) was defined as 100%.

[1] = test system: gelatinases (MMP-2 and MMP-9); experiment: Gelatinase protein (immunoblot) and activity (gelatin zymography) in HUVECs; type: cell-based, human; details: FIG. 6D
Description: The experiments were carried out as described previously (Pan et al., 2010). Briefly, the cells (5×10^5 cells/well) seeded on the 6-well plates and incubated with different concentrations (0.5, 1, and 2 μM) of K20E under normal culture condition for 15 min or 24 h to detect the expression levels of the phosphorylated proteins and the total proteins, respectively. The treated cells were harvested and lysed by using PROPREP® protein extraction solution (#17081; iNtRON Biotechnology, Gyeonggi-Do, South Korea). The cell lysates were further centrifuged at 13000×g at 4° C. for 10 min to collect the supernatants for sodium dodecyl sulfate-polyacrylamide gel electrophoresis (SDS-PAGE). Protein concentration was measured by the Bio-Rad protein assay kit (Bio-Rad, Hercules, Calif., USA) according to the manufacturer's instructions. […] The luminescence signal was acquired by Fujifilm LAS-4000 system (San Leandro, Calif., USA) and quantified by using MultiGauge software (v3.0; Fujifilm). […] The relative protein expression was calculated according to the values of the control group (treated with 5% or 10% FBS alone) as 100%.
The experiments were carried out according to the procedure of previous study with minor modification (Chen et al., 2012). […] The intensity of the digested bands was quantified by using Multi Gauge software. […]

activity levels of gelatinases (MMP-2 and MMP-9) ([1]; gelatin zymography): evidently decreased
protein levels of gelatinases (MMP-2 and MMP-9) ([1]; immunoblot): evidently decreased
SMILES: COC(=O)/C=C/c1cc(OC(C)=O)c2c(c1)[C@H](C(=O)OC)[C@@H](c1ccc(OC(C)=O)c(OC(C)=O)c1)O2 [K20E]
GI50 (HUVECs; Homo sapiens, HUVEC, 24 h, MTT assay, 24 h treatment, 5% FBS-stimulated HUVECs): ~7.5 µM
5% FBS-stimulated cell growth of the HUVECs (HUVECs; dose-dependent, FIG. 2A): markedly reduced
